Test results as given in US20160060222A1, “AMINO-QUINOLINES AS KINASE INHIBITORS” (GlaxoSmithKline Intellectual Property Development Limited, priority 2011, published 2016).
Where a name gives a salt, the structure may show the parent alone.

Molecular target: T1, RIPK2 (Homo sapiens, UniProt O43353)
T1 construct: Full length FLAG His tagged RIPK2 was purified from a Baculovirus expression system; FLAG (N); 6His (N); made in house; host or cells: Spodoptera frugiperda (Sf9) insect cells, baculovirus
Experiment: Fluorescent polarization based binding assay at the ATP binding pocket of RIPK2
Settings: full length FLAG His tagged RIPK2; competition with fluorescently labeled ATP competitive ligand (5 nM); mean of a minimum of 2 experiments; read-out: mean pIC50 (RIP2 kinase, fluorescent polarization binding assay) (converted)
From the text: A fluorescent polarization based binding assay was developed to quantitate interaction of novel test compounds at the ATP binding pocket of RIPK2, by competition with a fluorescently labeled ATP competitive ligand. Full length FLAG His tagged RIPK2 was purified from a Baculovirus expression system and was used at a final assay concentration of twice the KDapparent. A fluorescent labeled ligand (5-({[2-({[3-({4-[(5-hydroxy-2-methylphenyl)amino]-2-pyrimidinyl}amino)phenyl]carbonyl}amino)ethyl]amino}carbonyl)-2-(6-hydroxy-3-oxo-3H-xanthen-9-yl)benzoic acid, prepared as described below) was used at a final assay concentration of 5 nM. Both the enzyme and ligand were prepared in solutions in 50 mM HEPES pH7.5, 150 mM NaCl, 10 mM MgCl2, 1 mM DTT, and 1 mM CHAPS. Test compounds were prepared in 100% DMSO and 100 nL was dispensed to individual wells of a multiwell plate. Next, 5 ul RIPK2 was added to the test compounds at twice the final assay concentration, and incubated at room temperature for 10 minutes. Following the incubation, 5 ul of the fluorescent labeled ligand solution, was added to each reaction, at twice the final assay concentration, and incubated at room temperature for at least 10 minutes. Finally, samples were read on an instrument capable of measuring fluorescent polarization. Test compound inhibition was expressed as percent (%) inhibition of internal assay controls.
For concentration response experiments, normalized data were fit and pIC50s determined using conventional techniques. For example, the following four parameter logistic equation may be used: y=A+(([…]))/(1+(10^x)/(10^C)^D), where: y is the % activity (% inhibition) at a specified compound concentration; A is the minimum % activity; B is the maximum % activity; C=log10(IC50); D=Hill slope; x=log10 (compound concentration [M]); and pIC50=(−C).
The pIC50s are averaged to determine a mean value, for a minimum of 2 experiments.
Full-length human RIPK2 (receptor-interacting serine-threonine kinase 2) cDNA was purchased from Invitrogen (Carlsbad, Calif., USA, Clone ID:10H6368, RIPK2-pENTR 221). […]

T1 sequence (O43353 whole entry): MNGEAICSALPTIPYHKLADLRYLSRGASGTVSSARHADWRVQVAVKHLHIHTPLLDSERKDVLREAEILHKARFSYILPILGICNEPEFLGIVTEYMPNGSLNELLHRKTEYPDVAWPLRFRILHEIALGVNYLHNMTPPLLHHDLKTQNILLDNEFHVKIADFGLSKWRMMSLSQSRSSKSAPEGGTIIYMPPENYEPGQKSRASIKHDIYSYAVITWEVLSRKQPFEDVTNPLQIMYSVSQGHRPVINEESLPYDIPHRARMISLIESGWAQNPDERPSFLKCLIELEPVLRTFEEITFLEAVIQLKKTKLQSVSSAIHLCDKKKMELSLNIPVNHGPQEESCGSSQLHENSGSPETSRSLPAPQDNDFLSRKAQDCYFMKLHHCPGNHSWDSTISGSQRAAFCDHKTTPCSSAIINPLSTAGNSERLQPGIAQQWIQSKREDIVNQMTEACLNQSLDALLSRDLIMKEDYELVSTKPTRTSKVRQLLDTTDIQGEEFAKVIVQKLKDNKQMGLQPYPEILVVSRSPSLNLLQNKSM

IC50 [nM]	Structure (SMILES)
398	CS(=O)(=O)c1ccc2nccc(Nc3ccc(O)c(F)c3)c2c1 [Example 12, 2-fluoro-4-{[6-(methylsulfonyl)-4-quinolinyl]amino}phenol]
126	Nc1ccc(S(=O)(=O)c2ccc3nccc(Nc4ccc5scnc5c4)c3c2)cc1 [Example 106, 6-[(4-aminophenyl)sulfonyl]-N-1,3-benzothiazol-5-yl-4-quinolinamine tetrahydrochloride]
126	CS(=O)(=O)c1ccc2nccc(Nc3n[nH]c4cc(Cl)ccc34)c2c1 [Example 75, N-(6-chloro-1H-indazol-3-yl)-6-(methylsulfonyl)-4-quinolinamine]
